PubChem BioAssay (NCI)
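Cells were grown in 96-well plates and exposed to each compound for 48 hours at five concentrations; endpoints were interpolated linearly between bracketing concentrations, or set to the highest concentration if not reached. GI50: concentration for 50% inhibition of growth. TGI: total growth inhibition.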

Key:
Assay in all cases: growth of human tumour cells (NCI), 48 h; in the data active = GI50 below about 0.43 µM; inactive = the rest
[1] = tested on: 786-0 renal
[2] = tested on: A498 renal
[3] = tested on: A549 NSCLC
[4] = tested on: ACHN renal
[5] = tested on: BT-549 breast
[6] = tested on: CAKI-1 renal
[7] = tested on: CCRF-CEM leukemia
[8] = tested on: COLO 205 colon
[9] = tested on: DU-145 prostate
[10] = tested on: EKVX NSCLC
[11] = tested on: HCC-2998 colon
[12] = tested on: HCT-116 colon
[13] = tested on: HCT-15 colon
[14] = tested on: HL-60(TB) leukemia
[15] = tested on: HOP-62 NSCLC
[16] = tested on: HOP-92 NSCLC
[17] = tested on: HS 578T breast
[18] = tested on: HT29 colon
[19] = tested on: IGROV1 ovarian
[20] = tested on: K-562 leukemia
[21] = tested on: KM12 colon
[22] = tested on: LOX IMVI melanoma
[23] = tested on: M14 melanoma
[24] = tested on: MALME-3M melanoma
[25] = tested on: MCF7 breast
[26] = tested on: MDA-MB-231 breast
[27] = tested on: MDA-MB-435
[28] = tested on: MDA-MB-468 breast
[29] = tested on: MOLT-4 leukemia
[30] = tested on: NCI-H226 lung
[31] = tested on: NCI-H23 lung
[32] = tested on: NCI-H460 lung
[33] = tested on: NCI/ADR-RES ovarian
[34] = tested on: OVCAR-3 ovarian
[35] = tested on: OVCAR-4 ovarian
[36] = tested on: OVCAR-5 ovarian
[37] = tested on: OVCAR-8 ovarian
[38] = tested on: PC-3 prostate
[39] = tested on: RPMI-8226 leukemia
[40] = tested on: RXF 393 renal
[41] = tested on: SF-268 CNS
[42] = tested on: SF-295 CNS
[43] = tested on: SF-539 CNS
[44] = tested on: SK-MEL-2 melanoma
[45] = tested on: SK-MEL-28 melanoma
[46] = tested on: SK-MEL-5 melanoma
[47] = tested on: SK-OV-3 ovarian
[48] = tested on: SN12C renal
[49] = tested on: SNB-19 CNS
[50] = tested on: SNB-75 CNS
[51] = tested on: SR leukemia
[52] = tested on: SW-620 colon
[53] = tested on: T-47D breast
[54] = tested on: TK-10 renal
[55] = tested on: U251 CNS
[56] = tested on: UACC-257 melanoma
[57] = tested on: UACC-62 melanoma
[58] = tested on: UO-31 renal

FC(F)(F)c1cc2c(Cl)ncnc2n1CCN1CCOCC1
29.3 µM: TGI [27]
43.7 µM: TGI [34]
32.5 µM: TGI [57]
> 100 µM: TGI [1] | TGI [2] | TGI [3] | TGI [4] | TGI [6] | TGI [7] | TGI [8] | TGI [9] | TGI [12] | TGI [15] | TGI [18] | TGI [21] | TGI [25] | TGI [30] | TGI [32] | TGI [33] | TGI [35] | TGI [36] | TGI [39] | TGI [42] | TGI [47] | TGI [48] | TGI [53] | TGI [54]
inactive: GI50 [1] 37 µM | GI50 [2] > 100 µM | GI50 [3] > 100 µM | GI50 [4] 7.65 µM | GI50 [5] 13.6 µM | GI50 [6] 27.6 µM | GI50 [7] 16.6 µM | GI50 [8] 26.4 µM | GI50 [9] 28.9 µM | GI50 [10] 17 µM | GI50 [11] 2.23 µM | GI50 [12] 4.63 µM | GI50 [13] 3.3 µM | GI50 [14] 2.09 µM | GI50 [15] 38.9 µM | GI50 [16] 19 µM | GI50 [17] 16.5 µM | GI50 [18] 27.3 µM | GI50 [19] 2.54 µM | GI50 [20] 3.05 µM | GI50 [21] 35.5 µM | GI50 [22] 1.75 µM | GI50 [23] 11.6 µM | GI50 [24] 22.1 µM | GI50 [25] 25 µM | GI50 [26] 4.36 µM | GI50 [27] 13.2 µM | GI50 [28] 2.73 µM | GI50 [29] 5.71 µM | GI50 [30] 99 µM | GI50 [31] 17.9 µM | GI50 [32] 23.2 µM | GI50 [33] 30.5 µM | GI50 [34] 19.4 µM | GI50 [35] 33 µM | GI50 [36] > 100 µM | GI50 [37] 8.45 µM | GI50 [38] 11.3 µM | GI50 [39] 31.9 µM | GI50 [40] 14.9 µM | GI50 [41] 14.8 µM | GI50 [42] 24.7 µM | GI50 [43] 18.1 µM | GI50 [44] 17.4 µM | GI50 [45] 13.6 µM | GI50 [46] 13 µM | GI50 [47] > 100 µM | GI50 [48] 19.7 µM | GI50 [49] 15.3 µM | GI50 [50] 10.1 µM | GI50 [51] 2.85 µM | GI50 [52] 10.5 µM | GI50 [53] 38.8 µM | GI50 [54] > 100 µM | GI50 [55] 14.8 µM | GI50 [56] 10.5 µM | GI50 [57] 10.8 µM | GI50 [58] 2.53 µM
42.2 µM: TGI [43]
33.8 µM: TGI [41]
38.8 µM: TGI [55]
30.2 µM: TGI [56]
29.4 µM: TGI [37]
3.4 µM: TGI [22]
40.6 µM: TGI [40]
36.6 µM: TGI [38]
18.3 µM: TGI [26]
18.7 µM: TGI [20]
7.67 µM: TGI [19]
67.3 µM: TGI [24]
32.9 µM: TGI [45] | TGI [49]
12.6 µM: TGI [51]
74.4 µM: TGI [31]
59.8 µM: TGI [16]
59 µM: TGI [17]
29 µM: TGI [29]
10.4 µM: TGI [28]
33.4 µM: TGI [44]
5.97 µM: TGI [14]
28.2 µM: TGI [5]
5.11 µM: TGI [11]
22.4 µM: TGI [50]
94.6 µM: TGI [10]
56.1 µM: TGI [52]
8.99 µM: TGI [58]
36 µM: TGI [23]
17.7 µM: TGI [13]
29.7 µM: TGI [46]
